ChEMBL document CHEMBL1914304 (J Med Chem, 2011)

How the values were obtained:
HEK293 = experiment: Cytotoxicity against human HEK293 cells after 72 hrs by luminescence assay; type: cell-based; conditions: hek293, 72 h
Raji = experiment: Cytotoxicity against human Raji cells after 72 hrs by luminescence assay; type: cell-based
HepG2 = experiment: Cytotoxicity against human HepG2 cells after 72 hrs by luminescence assay; type: cell-based; conditions: hepg2, 72 h
BJ = experiment: Cytotoxicity against human BJ cells after 72 hrs by luminescence assay; type: cell-based
[1] = Selectivity ratio of EC50 for human HepG2 cells to EC50 for Plasmodium falciparum

| SMILES | Activity (HEK293) | Activity (Raji) | Activity (HepG2) | Activity (BJ) | selectivity ratio [1] |
| --- | --- | --- | --- | --- | --- |
| Cl.Nc1ccc(N2CCN(CC(O)COc3ccccc3C(=O)CCc3ccccc3)CC2)cc1 (racemic) | Non-toxic | Non-toxic | Non-toxic | Non-toxic | > 10 |
| Cl.O=C(CCc1ccccc1)c1ccccc1OCC(O)CN1CCN(c2ccc(O)cc2)CC1 (racemic) | Non-toxic | Non-toxic | Non-toxic | Non-toxic | > 10 |
| Cl.O=C(CCc1ccccc1)c1ccccc1OCC(O)CN1CCN(c2ccc(C(F)(F)F)cc2)CC1 (racemic) | Non-toxic | Non-toxic | Non-toxic | Non-toxic | > 10 |
| Cl.O=C(CCc1ccccc1)c1ccccc1OCC(O)CN1CCN(C(=O)c2ccccc2)CC1 (racemic) | Non-toxic | Non-toxic | Non-toxic | Non-toxic | > 10 |
| CN1CCN(CC(O)COc2ccccc2C(=O)CCc2ccccc2)CC1.Cl (racemic) | Non-toxic | Non-toxic | Non-toxic | Non-toxic | > 10 |
| CCN1CCN(CC(O)COc2ccccc2C(=O)CCc2ccccc2)CC1.Cl (racemic) | Non-toxic | Non-toxic | Non-toxic | Non-toxic | > 10 |
| Cl.O=C(CCc1ccccc1)c1ccccc1OCC(O)CN1CCOCC1 (racemic) | Non-toxic | Non-toxic | Non-toxic | Non-toxic | > 10 |
| Cc1cccc([N+]2(c3ccccc3)CCN(CC(O)COc3ccccc3C(=O)CCc3ccc(F)cc3)CC2)c1.[Cl-] (racemic) | Non-toxic | Non-toxic | Non-toxic | Non-toxic | > 10 |
| Cl.O=C(CCc1ccc(F)cc1)c1ccccc1OCC(O)CN1CCCCC1 (racemic) | Non-toxic | Non-toxic | Non-toxic | Non-toxic | > 10 |
| Cl.O=C(CCc1ccc(F)cc1)c1ccccc1OCC(O)CN1CCC(c2ccccc2)CC1 (racemic) | Non-toxic | Non-toxic | Non-toxic | Non-toxic | > 10 |
| Cl.O=C(CCc1ccc(F)cc1)c1ccccc1OCC(O)CN1CCC(Cc2ccccc2)CC1 (racemic) | Non-toxic | Non-toxic | Non-toxic | Non-toxic | > 10 |
| Cl.O=C(CCc1ccc(F)cc1)c1ccccc1OCC(O)CN1CCC(c2ccc(Cl)cc2)CC1 (racemic) | Non-toxic | Non-toxic | Non-toxic | Non-toxic | > 10 |
| Cl.O=C(CCc1ccc(F)cc1)c1ccccc1OCC(O)CN1CCC(O)(Cc2ccccc2)CC1 (racemic) | Non-toxic | Non-toxic | Non-toxic | Non-toxic | > 10 |
| Cl.O=C(CCc1ccc(F)cc1)c1ccccc1OCC(O)CN1CCC(O)(c2ccc(Cl)cc2)CC1 (racemic) | Non-toxic | Non-toxic | Non-toxic | Non-toxic | > 10 |
| Cl.O=C(CCc1ccc(F)cc1)c1ccccc1OCC(O)CN1CCN(c2ccccc2)CC1 (racemic) | Non-toxic | Non-toxic | Non-toxic | Non-toxic | > 10 |
